Key:
[1] = Stability at RT of drinabant in the saturated solution; type: physicochemical
Excerpt: (§1) The chemical composition of the selected excipients, as well the solubility of drinabant, are renorted in the table below.

[2] = Solubility of drinabant in excipients; type: physicochemical
Method: Drinabant may be added to a fixed volume of aqueous solution with and without various amounts of water soluble carriers such as Solutol HS 15 in screw capped bottles. […] Filtered solutions are then analyzed for drinabant concentration using an appropriate method such as UV/visible spectrophotometry at an appropriate wavelength (nm) or by HPLC.
Two different categories of excipients, described in the literature as injectable intravenously, were tested for the solubility of drinabant:
as §1

[3] = cited from earlier work

## CS(=O)(=O)N(c1cc(F)cc(F)c1)C1CN(C(c2ccc(Cl)cc2)c2ccc(Cl)cc2)C1 [drinabant]
[1]; in Cremophor EL
  Stability at RT of drinabant in the saturated solution: Stable
[1]; in PS80 VG
  Stability at RT of drinabant in the saturated solution: Stable
[1]; in Solutol HS15
  Stability at RT of drinabant in the saturated solution: Stable
[2]; in Cremophor EL (POE hydrogenated castor oil)
  drinabant solubility: 49.4 mg/g
[2]; in Glycerol
  drinabant solubility: <<0.0001 mg/g
[2]; in Glycofurol
  drinabant solubility: 139.4 mg/g
[2]; in PEG 400
  drinabant solubility: 50 mg/g
[2]; in PS80 VG (POE monooleate)
  drinabant solubility: 48.8 mg/g
[2]; in Propylene glycol
  drinabant solubility: 7 mg/g
[2]; in Solutol HS15 (PEG hydroxystearate), at 40° C.
  drinabant solubility: 64.6 mg/g
[3]; oral drinabant
  Tmax: > 3 h
[3]; oral, up to 240 mg up to 3 weeks (Phase I), 60 mg up to 24 weeks (Phase II)
  safety and tolerability: safe and well tolerated

— patent publication US20200397749A1, “COMPOSITIONS AND METHODS FOR TREATING ACUTE CANNABINOID OVERDOSE WITH A CANNABINOID RECEPTOR ANTAGONIST” (Opiant Pharmaceuticals, Inc., priority 2019, published 2020)
